Measured values taken from ChEMBL document CHEMBL3044754, “Physcion, a natural anthraquinone derivative, enhances the gene expression of leaf-specific thionin of barley against Blumeria graminis” (2010).
Activity calls are given as the source filed them. No cut-off for these calls is given here.

Assays:
[1] = test system: Hordeum vulgare; assay: Induction of resistance to Blumeria graminis f. sp. hordei isolate W14 infection in Hordeum vulgare cv. Edamai 9 (barley) assessed as upregulation of leaf-specific thionin gene using Contig1567_x_at as probe at 10 mg/l after 8 hr by qRT-PCR analysis relative to untreated control; format: functional
[2] = test system: Hordeum vulgare; assay: (§1) Induction of resistance to Blumeria graminis f. sp. hordei isolate W14 infection in Hordeum vulgare cv. Edamai 9 (barley) assessed as upregulation of stress-induced gene using Contig3427_at as probe at 10 mg/l after 8 hr by microarray analysis relative to untreated control; format: functional
[3] = test system: Hordeum vulgare; assay: as §1, with “Xyloglucan endotransglycosylase-like protein” for “stress-induced”, “Contig2669_at” for “Contig3427_at”; format: functional
[4] = test system: Blumeria hordei; assay: Antifungal activity against Blumeria graminis f. sp. hordei isolate W14 infected barley cv. Edamai 9 assessed as conidial germination at 10 mg/l after 15 days (reference value: 92.4%); format: functional
[5] = test system: Hordeum vulgare; assay: Induction of resistance to Blumeria graminis f. sp. hordei isolate W14 infection in Hordeum vulgare cv. Edamai 9 (barley) assessed as upregulation of leaf-specific thionin gene using Contig1567_x_at as probe at 10 mg/l after 8 hr by microarray analysis relative to untreated control; format: functional
[6] = test system: Blumeria hordei; assay: Antifungal activity against Blumeria graminis f. sp. hordei isolate W14 assessed as conidial germination at 10 mg/l after 48 hr (reference value: 47.3%); format: functional
[7] = test system: Hordeum vulgare; assay: Induction of resistance to Blumeria graminis f. sp. hordei isolate W14 infection in Hordeum vulgare cv. Edamai 9 (barley) assessed as upregulation of leaf-specific thionin gene using Contig1582_x_at as probe at 10 mg/l after 8 hr by microarray analysis relative to untreated control; format: functional
[8] = test system: Hordeum vulgare; assay: Induction of resistance to Blumeria graminis f. sp. hordei isolate W14 infection in Hordeum vulgare cv. Edamai 9 (barley) assessed as downregulation of Pathogenesis-related protein gene using Contig4054_s_at as probe at 10 mg/l after 8 hr by microarray analysis relative to untreated control; format: functional
[9] = test system: Hordeum vulgare; assay: Induction of resistance to Blumeria graminis f. sp. hordei isolate W14 infection in Hordeum vulgare cv. Edamai 9 (barley) assessed as downregulation of Pathogenesis-related protein 4 gene using Contig2550_x_at as probe at 10 mg/l after 8 hr by microarray analysis relative to untreated control; format: functional
[10] = test system: Hordeum vulgare; assay: Induction of resistance to Blumeria graminis f. sp. hordei isolate W14 infection in Hordeum vulgare cv. Edamai 9 (barley) assessed as upregulation of leaf-specific thionin gene using Contig1580_x_at as probe at 10 mg/l after 8 hr by microarray analysis relative to untreated control; format: functional
[11] = test system: Hordeum vulgare; assay: Induction of localised resistance to Blumeria graminis f. sp. hordei isolate W14 infection in Hordeum vulgare cv. Edamai 9 (barley) assessed as decrease in colonies on leaf at 10 mg/l up to 216 hr relative to untreated-control; format: functional, organism-based
[12] = test system: Hordeum vulgare; assay: Induction of resistance to Blumeria graminis f. sp. hordei isolate W14 infection in Hordeum vulgare cv. Edamai 9 (barley) assessed as downregulation of Bsi1 protein gene using HD04G07u_s_at as probe at 10 mg/l after 8 hr by microarray analysis relative to untreated control; format: functional
[13] = test system: Hordeum vulgare; assay: Induction of resistance to Blumeria graminis f. sp. hordei isolate W14 infection in Hordeum vulgare cv. Edamai 9 (barley) assessed as upregulation of leaf-specific thionin gene using Contig1570_s_at as probe at 10 mg/l after 8 hr by microarray analysis relative to untreated control; format: functional
[14] = test system: Hordeum vulgare; assay: Induction of resistance to Blumeria graminis f. sp. hordei isolate W14 infection in Hordeum vulgare cv. Edamai 9 (barley) assessed as upregulation of leaf-specific thionin gene using Contig1570_s_at as probe at 10 mg/l after 8 hr by qRT-PCR analysis relative to untreated control; format: functional
[15] = test system: Hordeum vulgare; assay: Induction of resistance to Blumeria graminis f. sp. hordei isolate W14 infection in Hordeum vulgare cv. Edamai 9 (barley) assessed as upregulation of leaf-specific thionin gene using Contig1576_at as probe at 10 mg/l after 8 hr by microarray analysis relative to untreated control; format: functional
[16] = test system: Hordeum vulgare; assay: Induction of resistance to Blumeria graminis f. sp. hordei isolate W14 infection in Hordeum vulgare cv. Edamai 9 (barley) assessed as downregulation of Oxalate oxidase gene using Contig3017_at as probe at 10 mg/l after 8 hr by microarray analysis relative to untreated control; format: functional
[17] = test system: Hordeum vulgare; assay: Induction of resistance to Blumeria graminis f. sp. hordei isolate W14 infection in Hordeum vulgare cv. Edamai 9 (barley) assessed as downregulation of Peroxidase gene using HVSMEm0005P05r2_at as probe at 10 mg/l after 8 hr by microarray analysis relative to untreated control; format: functional
[18] = test system: Hordeum vulgare; assay: Induction of resistance to Blumeria graminis f. sp. hordei isolate W14 infection in Hordeum vulgare cv. Edamai 9 (barley) assessed as upregulation of Phytoene synthase E1 gene using Contig13305_at as probe at 10 mg/l after 8 hr by microarray analysis relative to untreated control; format: functional
[19] = test system: Hordeum vulgare; assay: Induction of systemic resistance to Blumeria graminis f. sp. hordei isolate W14 infection in Hordeum vulgare cv. Edamai 9 (barley) assessed as decrease in colonies on leaf at 10 mg/l up to 216 hr relative to untreated-control; format: functional, organism-based
[20] = test system: Blumeria hordei; assay: Antifungal activity against Blumeria graminis f. sp. hordei isolate W14 infected barley cv. Edamai 9 assessed as disease index at 10 mg/l after 15 days (reference value: 76.5%); format: functional
[21] = test system: Hordeum vulgare; assay: Induction of resistance to Blumeria graminis f. sp. hordei isolate W14 infection in Hordeum vulgare cv. Edamai 9 (barley) assessed as upregulation of stress-induced gene using Contig3426_at as probe at 10 mg/l after 8 hr by microarray analysis relative to untreated control; format: functional

COc1cc(O)c2c(c1)C(=O)c1cc(C)cc(O)c1C2=O [PHYSCION]
fold change (FC) [1]: 4.77 | fold change (FC) [2]: 2.41 | fold change (FC) [3]: 2.44 | Activity [4]: 4.5% | fold change (FC) [5]: 19.91 | Activity [6]: 56.6% | fold change (FC) [7]: 4.26 | fold change (FC) [8]: -2.94 | fold change (FC) [9]: -2.34 | fold change (FC) [10]: 4.74 | Activity [11]: Active | fold change (FC) [12]: -2.77 | fold change (FC) [13]: 4.3 | fold change (FC) [14]: 5.61 | fold change (FC) [15]: 9.34 | fold change (FC) [16]: -2.87 | fold change (FC) [17]: -2.96 | fold change (FC) [18]: 2.09 | Activity [19]: inactive | PDI [20]: 4.4% | fold change (FC) [21]: 3.04
